The target in assay [1] is CRAC ion channel (Rattus norvegicus, UniProt Q5M848). Briefly: Patch clamp inhibition of ICRAC current in RBL cells. The assay is classed as cell-based. Conditions: whole-cell patch clamp, read-out: IC50 (concentration which inhibits 50% of the ICRAC current). The protocol: In general, a whole cell patch clamp method was used to examine the effects of a compound of the invention on a channel that mediates Icrac. In such experiments, a baseline measurement was established for a patched cell. Then a compound to be tested was perfused (or puffed) to cells in the external solution and the effect of the compound on Icrac was measured. A compound that modulates Icrac (e.g., inhibits) is a compound that is useful in the invention for modulating CRAC ion channel activity.
Rat basophilic leukemia cells (RBL-2H3) were grown in DMEM media supplemented with 10% fetal bovine serum in an atmosphere of 95% air/5% CO2. Cells were seeded on glass coverslips 1-3 days before use.
Membrane currents of individual cells were recorded using the whole-cell configuration of the patch clamp technique with an EPC10 (HEKA Electronik, Lambrecht, Germany). Electrodes (2-5 MO in resistance) were fashioned from borosilicate glass capillary tubes (Sutter Instruments, Novato, Ca). The recordings were done at room temperature.
Cs-Glutamate 120 mM; CsCl 20 mM; CsBAPTA 10 mM; CsHEPES 10 mM; NaCl 8 mM; MgCl2 1 mM; IP3 0.02 mM; pH=7.4 adjusted with CsOH. (Shielded from light and kept on ice before experiment)
NaCl 138 mM; NaHEPES, 10 mM; CsCl 10 mM; CaCl2 10 mM; Glucose 5.5 mM; KC1-5.4 mM; KH2PO4 0.4 mM; Na2HPO4H2 0.3 mM at pH=7.4 adjusted with NaOH.
Each compound was diluted from a 10 mM stock in series using DMSO (10 μM, 3.2 μM, […], 316 nM, 100 nM, 32 nM). The final DMSO concentration was always kept at 0.1%.
ICRAC currents were monitored every 2 seconds using a 50 msec protocol, where the voltage was ramped from −100 mV to +100 mV. The membrane potential was held at 0 mV between the test ramps. In a typical experiment the peak inward currents would develop within 50-100 seconds. […]
The ICRAC current level was determined by measuring the inward current amplitude at −80 mV of the voltage ramp in an off-line analysis using MATLAB. The ICRAC current inhibition for each concentration was calculated using peak amplitude in the beginning of the experiment from the same cell. […]

For assay [2], the system named is CRAC ion channel. Nature of the assay: Patch clamp inhibition of ICRAC current in primary T cells. The assay is classed as cell-based. The note with it: primary human T cells, FIG. 1. The protocol:
Primary T cells were obtained from human whole blood samples by adding 100 μL of RosetteSep® human T cell enrichment cocktail to 2 mL of whole blood. The mixture was incubated for 20 minutes at room temperature, then diluted with an equal volume of PBS containing 2% FBS. The mixture was layered on top of RosetteSep® DM-L density medium and then centrifuged for 20 minutes at 1200 g at room temperature.
The enriched T cells were recovered from the plasma/density medium interface, then washed with PBS containing 2% FBS twice, and used in patch clamp experiments following the procedure described for RBL cells.
A general note: In patch-clamp work, channel activity is measured electrically.

Assay [3] relates to IL-2 production. Briefly: IL-2 production upon PMA/ionomycin stimulation in whole blood from dosed cynomolgus monkeys. The class given is in vivo. Conditions: cynomolgus monkey, IV 5 mg/kg, 4 hours after dosing, FIG. 3. The protocol: (§1) 3 male non-naïve cynomolgus monkeys were fasted overnight prior to and for four (4) hours following each dose. Each monkey was given a single intravenous dose of the appropriate test compound followed by a 1 mL rinse of saline to flush the catheter. The dose was infused over one hour using calibrated syringe pumps. Following a one week washout, the same three monkeys were given a single oral gavage dose of the appropriate test compound dose formulation followed by a 10 mL flush with tap water. Following a second one week washout, the same three monkeys received a second oral dose of the appropriate test compound dose formulation followed by a 10 mL flush with tap water. Following a third one week washout, the same three monkeys received a third oral dose of the appropriate test compound dose formulation followed by a 10 mL flush with tap water. Prior to and at 1, 2, and 4 hours following each dose (measured from the start of dosing for IV doses), blood samples (3 mL/sample for Group 1 and 2 mL/sample for Groups 2 and 3) were drawn into tubes containing sodium heparin and stored at room temperature, and the concentration of the test compounds in each sample was measured. CsA was included as a positive control.

The subject of the next assay is TNF-α production. Nature of the assay: TNF-α production upon PMA/ionomycin stimulation in whole blood from dosed cynomolgus monkeys. Conditions: cynomolgus monkey, IV 5 mg/kg, 4 hours after dosing, FIG. 4. The assay is classed as in vivo. On the procedure: as §1
In assay [4] the test system is IL-2 production. Briefly: Inhibition of IL-2 production in PHA-activated Jurkat cells (ELISA). The class given is cell-based. The note with it: Homo sapiens, 20 h. The protocol:
Jurkat cells were placed in a 96 well plate (0.5 million cells per well in 1% FBS medium) then test compounds of this invention were added at different concentrations. After 10 minutes, the cells were activated with PHA (final concentration 2.5 μg/mL) and incubated for 20 hours at 37° C. under CO2. The final volume was 200 μL. Following incubation, the cells were centrifuged and the supernatants collected and stored at −70° C. prior to assaying for IL-2 production. A commercial ELISA kit (IL-2 Eli-pair, Diaclone Research, Besancon, France) was used to detect production of IL-2, from which dose response curves were obtained. The IC50 value was calculated as the concentration at which 50% of maximum IL-2 production after stimulation was inhibited versus a non-stimulation control.

Molecules are shown by their SMILES.

Chain of CRAC ion channel (Rattus norvegicus, UniProt Q5M848) (Q5M848 whole entry, the tested form may be a part): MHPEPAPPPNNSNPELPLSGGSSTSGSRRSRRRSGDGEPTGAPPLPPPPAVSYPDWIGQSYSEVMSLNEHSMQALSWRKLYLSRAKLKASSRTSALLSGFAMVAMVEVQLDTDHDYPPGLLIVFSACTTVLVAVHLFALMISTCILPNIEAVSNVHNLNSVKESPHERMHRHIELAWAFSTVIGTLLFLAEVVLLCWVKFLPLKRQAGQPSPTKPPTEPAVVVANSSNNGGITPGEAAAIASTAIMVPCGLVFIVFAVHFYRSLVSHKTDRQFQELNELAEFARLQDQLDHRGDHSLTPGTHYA
Chain of CRAC ion channel (Rattus norvegicus, UniProt Q5M848) (P84903 23-685, further chain): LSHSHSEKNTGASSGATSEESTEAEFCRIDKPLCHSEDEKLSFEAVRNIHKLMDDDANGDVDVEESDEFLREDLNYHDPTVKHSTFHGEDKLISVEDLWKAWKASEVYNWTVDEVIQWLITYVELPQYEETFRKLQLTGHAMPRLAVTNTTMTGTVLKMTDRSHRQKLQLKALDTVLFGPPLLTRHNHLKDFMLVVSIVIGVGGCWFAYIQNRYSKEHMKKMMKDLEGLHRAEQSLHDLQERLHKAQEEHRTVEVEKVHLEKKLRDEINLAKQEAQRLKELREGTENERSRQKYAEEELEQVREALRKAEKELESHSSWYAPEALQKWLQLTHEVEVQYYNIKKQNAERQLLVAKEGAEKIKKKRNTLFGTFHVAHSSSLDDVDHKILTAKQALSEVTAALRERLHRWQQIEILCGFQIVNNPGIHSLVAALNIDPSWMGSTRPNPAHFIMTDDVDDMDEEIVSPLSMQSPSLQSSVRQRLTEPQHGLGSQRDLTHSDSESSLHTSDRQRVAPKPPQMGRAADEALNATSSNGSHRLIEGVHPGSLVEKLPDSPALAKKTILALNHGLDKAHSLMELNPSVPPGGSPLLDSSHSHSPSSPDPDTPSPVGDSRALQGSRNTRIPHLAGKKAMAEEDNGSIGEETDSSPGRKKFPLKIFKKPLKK

As to `Cc1nnsc1C(=O)Nc1ccc(-c2cc(C(F)(F)F)ccc2Cl)cc1` [Compound 27, 4-Methyl-[1,2,3]thiadiazole-5-carboxylic acid (2′-chloro-5′-trifluoromethyl-biphenyl-4-yl)-amide], at CRAC ion channel [1], the IC50 was 400 nM.
`COc1ccc(OC)c(-c2ccc(NC(=O)c3cccc(F)c3F)cc2)c1` [Compound 31, N-(2′,5′-Dimethoxy-biphenyl-4-yl)-2,3-difluoro-benzamide]: at CRAC ion channel [1], the IC50 was 100 nM. Further, in the assay on CRAC ion channel [2], the “inhibition of ICRAC current in primary T cells compared with RBL cells” value was “inhibits ICRAC current equally well in primary T cells as in RBL cells”. In addition, the “IL-2 production after IV infusion” value in the assay on IL-2 production [3] is given as “significantly inhibit”. Also, the “TNF-α production after IV infusion” value in the assay on TNF-α production is “significantly inhibit”.
Consider `COc1ccc(C)cc1-c1ccc(NC(=O)c2cccc(F)c2F)cc1` [Compound 46, N-(2′-methoxy-5′-methyl-biphenyl-4-yl)-2,3-difluorobenzamide], for which the IC50 with IL-2 production [4] (bins in nM) was below 100 nM.
On the same count and under the same terms, as for `Cc1nocc1C(=O)Nc1ccc(-c2cc(C(F)(F)F)ccc2C(F)(F)F)cc1` [Compound 48, 3-methylisoxazole-4-carboxylic acid (2′,5′-bis-trifluoromethyl-biphenyl-4-yl)-amide], the figure is 100 to 500 nM.
As to `O=C(Nc1ccc(-c2cc(C(F)(F)F)ccc2C(F)(F)F)cc1)c1ccnc2ccccc12` [Compound 57, quinoline-4-carboxylic acid (2′,5′-bis-trifluoromethyl-biphenyl-4-yl)-amide], in the assay on IL-2 production [4] (bin printed with mixed units nM and μM), the IC50 was in the range of 500 to 1000 nM.
For `COc1ccc(Cl)cc1-c1ccc(NC(=O)c2cc(F)c(F)cc2F)cc1` [Compound 84, N-(2′-methoxy-5′-chloro-biphenyl-4-yl)-2,4,5-trifluorobenzamide], the IC50 on CRAC ion channel [1] came to 300 nM.
